Data as given in US9446116B2, “Peptide sequences and compositions” (priority 2006, dated 2016).

Legend:
[1] = test system: primary splenocytes; format: cell-based, C57BL/6-Tg(HLA-A2.1)1Enge/J mice; conditions: stimulation with P6 (data not shown)
[2] = test system: Influenza A/PR/8/34; format: in vivo, C57BL/6-Tg(HLA-A2.1)1Enge/J mice

Row | Substance | IL-4 production [1] | succumbed to infection (mortality) ([2]; CD8 depletion (anti-CD8 sera days 19 and 22), […], FIG. 3A) [%] | mortality rate ([2]; absence of CD8 depletion (irrelevant sera), FIG. 3B) [%]
1 | IIGILHLILWILDRLFFKCIYRLF [P6] | failure of stimulation with P6 to induce any IL-4 production | – | –
2 | NRP-v: Lysozyme (Sigma) denatured by boiling, used as the control non relevant preparation | – | 100 | 100
